Test results reported in patent publication US9790228B2, “Heterocyclic kinase inhibitors” (Intellikine LLC, priority 2008, dated 2017).

How the values were obtained:
p110α/p85α = p110α/p85α (Homo sapiens (Human), UniProt P42336); experiment: PI3K α inhibition assay (TLC lipid kinase or HTRF); assay type: biochemical
Summary of the method: (§1)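 IC50 from TLC lipid kinase assay (25 mM HEPES pH 7.4, 10 mM MgCl2, 100 μg/ml phosphatidylinositol, 10 or 100 μM γ-32P-ATP, 5 min RT, phosphorimager) at 10–12 two-fold dilutions, or HTRF (10 μM PIP2, 10 μM ATP, 1 h RT) measuring PIP3 by TR-FRET; 2% DMSO final.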

p110β/p85α = p110β/p85α (Homo sapiens, UniProt P42338); experiment: PI3K β inhibition assay (TLC lipid kinase or HTRF); assay type: biochemical; conditions: read-out: PI3K β IC50
p110β/p85α, sequence (P42338 whole entry, looked up): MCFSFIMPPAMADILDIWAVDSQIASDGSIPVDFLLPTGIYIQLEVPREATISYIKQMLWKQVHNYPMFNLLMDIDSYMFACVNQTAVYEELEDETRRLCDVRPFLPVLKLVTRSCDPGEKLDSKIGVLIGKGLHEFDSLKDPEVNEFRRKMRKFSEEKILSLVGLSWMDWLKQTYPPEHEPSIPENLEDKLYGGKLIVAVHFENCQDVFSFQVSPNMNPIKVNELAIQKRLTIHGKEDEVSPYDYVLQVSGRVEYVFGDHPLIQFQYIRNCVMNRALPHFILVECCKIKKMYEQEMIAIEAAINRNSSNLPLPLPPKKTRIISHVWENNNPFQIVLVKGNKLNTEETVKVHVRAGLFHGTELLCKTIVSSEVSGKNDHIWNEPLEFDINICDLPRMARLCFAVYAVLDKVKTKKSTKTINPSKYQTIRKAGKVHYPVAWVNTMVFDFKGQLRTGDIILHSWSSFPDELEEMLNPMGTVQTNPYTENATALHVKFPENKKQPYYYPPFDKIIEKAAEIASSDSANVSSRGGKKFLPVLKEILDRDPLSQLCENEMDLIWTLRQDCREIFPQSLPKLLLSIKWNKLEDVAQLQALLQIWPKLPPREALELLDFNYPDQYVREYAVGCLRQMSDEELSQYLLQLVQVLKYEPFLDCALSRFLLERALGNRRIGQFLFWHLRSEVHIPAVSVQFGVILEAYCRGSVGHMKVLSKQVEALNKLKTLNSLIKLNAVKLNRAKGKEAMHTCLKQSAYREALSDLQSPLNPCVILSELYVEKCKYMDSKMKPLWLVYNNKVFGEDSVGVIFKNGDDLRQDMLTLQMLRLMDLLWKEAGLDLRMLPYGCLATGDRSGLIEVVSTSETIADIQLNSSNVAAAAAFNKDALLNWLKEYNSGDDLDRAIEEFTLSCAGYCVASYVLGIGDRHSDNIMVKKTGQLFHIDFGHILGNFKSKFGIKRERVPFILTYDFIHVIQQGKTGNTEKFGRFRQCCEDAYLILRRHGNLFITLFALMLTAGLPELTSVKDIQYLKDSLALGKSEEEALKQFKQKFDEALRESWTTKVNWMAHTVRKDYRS
Summary of the method: as §1

p110δ/p85α = p110δ/p85α (Homo sapiens (Human), UniProt O00329); experiment: PI3K δ inhibition assay (TLC lipid kinase or HTRF); assay type: biochemical
p110δ/p85α, sequence (O00329 whole entry): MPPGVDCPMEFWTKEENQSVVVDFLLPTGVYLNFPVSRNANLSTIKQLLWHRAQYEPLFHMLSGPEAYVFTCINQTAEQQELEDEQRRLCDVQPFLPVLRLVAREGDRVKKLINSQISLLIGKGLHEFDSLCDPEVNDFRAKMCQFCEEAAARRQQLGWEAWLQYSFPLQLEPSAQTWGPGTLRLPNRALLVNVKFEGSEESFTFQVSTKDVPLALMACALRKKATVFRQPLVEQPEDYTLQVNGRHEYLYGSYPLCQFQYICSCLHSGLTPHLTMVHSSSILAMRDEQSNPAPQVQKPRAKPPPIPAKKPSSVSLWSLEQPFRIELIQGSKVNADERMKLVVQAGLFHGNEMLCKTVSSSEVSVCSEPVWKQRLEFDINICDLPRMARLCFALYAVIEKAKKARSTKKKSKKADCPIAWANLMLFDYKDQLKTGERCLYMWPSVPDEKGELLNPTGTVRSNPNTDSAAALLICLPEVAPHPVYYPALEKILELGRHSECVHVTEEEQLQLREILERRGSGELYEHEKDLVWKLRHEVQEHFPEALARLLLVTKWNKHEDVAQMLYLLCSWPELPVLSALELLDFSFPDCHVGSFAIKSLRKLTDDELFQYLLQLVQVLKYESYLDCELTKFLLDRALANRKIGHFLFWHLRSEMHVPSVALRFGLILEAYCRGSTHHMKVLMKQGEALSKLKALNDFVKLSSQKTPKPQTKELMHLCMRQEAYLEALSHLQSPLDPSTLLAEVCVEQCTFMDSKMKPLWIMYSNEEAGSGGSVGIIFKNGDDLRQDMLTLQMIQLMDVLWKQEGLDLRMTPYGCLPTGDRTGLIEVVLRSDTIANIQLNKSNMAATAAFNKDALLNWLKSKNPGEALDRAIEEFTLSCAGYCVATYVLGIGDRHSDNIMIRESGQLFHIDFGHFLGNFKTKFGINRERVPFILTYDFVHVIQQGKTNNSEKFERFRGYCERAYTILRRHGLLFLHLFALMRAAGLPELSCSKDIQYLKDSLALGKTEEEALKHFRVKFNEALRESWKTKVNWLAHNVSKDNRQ
p110δ/p85α, sequence (P27986 whole entry partner): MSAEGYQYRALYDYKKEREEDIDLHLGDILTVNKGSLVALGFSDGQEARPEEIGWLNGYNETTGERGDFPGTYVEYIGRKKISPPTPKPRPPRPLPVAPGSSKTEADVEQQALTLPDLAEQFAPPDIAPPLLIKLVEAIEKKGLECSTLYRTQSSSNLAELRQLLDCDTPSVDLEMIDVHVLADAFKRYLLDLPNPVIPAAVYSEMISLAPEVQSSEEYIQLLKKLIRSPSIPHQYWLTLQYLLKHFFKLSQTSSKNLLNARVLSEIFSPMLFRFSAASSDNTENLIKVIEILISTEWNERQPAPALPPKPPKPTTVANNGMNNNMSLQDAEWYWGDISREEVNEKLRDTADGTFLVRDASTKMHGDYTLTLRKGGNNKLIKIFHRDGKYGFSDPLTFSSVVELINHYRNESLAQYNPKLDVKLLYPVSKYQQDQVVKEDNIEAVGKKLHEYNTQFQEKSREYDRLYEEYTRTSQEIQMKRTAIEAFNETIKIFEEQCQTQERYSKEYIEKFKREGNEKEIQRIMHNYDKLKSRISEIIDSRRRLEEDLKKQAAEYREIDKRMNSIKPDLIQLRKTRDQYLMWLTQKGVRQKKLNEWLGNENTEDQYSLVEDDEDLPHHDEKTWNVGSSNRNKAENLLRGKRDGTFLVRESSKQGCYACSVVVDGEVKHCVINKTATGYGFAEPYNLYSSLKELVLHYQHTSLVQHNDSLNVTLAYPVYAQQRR
Summary of the method: as §1

Balb/c splenic B cells = experiment: B cell activation and proliferation assay (Alamar Blue); assay type: cell-based, mouse; conditions: Mus musculus, B-cell
Summary of the method: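 Purified Balb/c splenic B cells, 50,000/well, pretreated with compound 30 min (0.2% DMSO), then stimulated with 10 ug/ml LPS or 5 ug/ml anti-IgM F(ab′)2 plus 2 ng/ml IL4 (cocktail concentrations) for 72 h at 37 °C. Alamar Blue 5 h, fluorescence 560/590 nm; IC50/EC50 calculated.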

p110γ = p110γ (Homo sapiens (Human), UniProt P48736); experiment: PI3K γ inhibition assay (TLC lipid kinase or HTRF); assay type: biochemical
p110γ, sequence (P48736 whole entry): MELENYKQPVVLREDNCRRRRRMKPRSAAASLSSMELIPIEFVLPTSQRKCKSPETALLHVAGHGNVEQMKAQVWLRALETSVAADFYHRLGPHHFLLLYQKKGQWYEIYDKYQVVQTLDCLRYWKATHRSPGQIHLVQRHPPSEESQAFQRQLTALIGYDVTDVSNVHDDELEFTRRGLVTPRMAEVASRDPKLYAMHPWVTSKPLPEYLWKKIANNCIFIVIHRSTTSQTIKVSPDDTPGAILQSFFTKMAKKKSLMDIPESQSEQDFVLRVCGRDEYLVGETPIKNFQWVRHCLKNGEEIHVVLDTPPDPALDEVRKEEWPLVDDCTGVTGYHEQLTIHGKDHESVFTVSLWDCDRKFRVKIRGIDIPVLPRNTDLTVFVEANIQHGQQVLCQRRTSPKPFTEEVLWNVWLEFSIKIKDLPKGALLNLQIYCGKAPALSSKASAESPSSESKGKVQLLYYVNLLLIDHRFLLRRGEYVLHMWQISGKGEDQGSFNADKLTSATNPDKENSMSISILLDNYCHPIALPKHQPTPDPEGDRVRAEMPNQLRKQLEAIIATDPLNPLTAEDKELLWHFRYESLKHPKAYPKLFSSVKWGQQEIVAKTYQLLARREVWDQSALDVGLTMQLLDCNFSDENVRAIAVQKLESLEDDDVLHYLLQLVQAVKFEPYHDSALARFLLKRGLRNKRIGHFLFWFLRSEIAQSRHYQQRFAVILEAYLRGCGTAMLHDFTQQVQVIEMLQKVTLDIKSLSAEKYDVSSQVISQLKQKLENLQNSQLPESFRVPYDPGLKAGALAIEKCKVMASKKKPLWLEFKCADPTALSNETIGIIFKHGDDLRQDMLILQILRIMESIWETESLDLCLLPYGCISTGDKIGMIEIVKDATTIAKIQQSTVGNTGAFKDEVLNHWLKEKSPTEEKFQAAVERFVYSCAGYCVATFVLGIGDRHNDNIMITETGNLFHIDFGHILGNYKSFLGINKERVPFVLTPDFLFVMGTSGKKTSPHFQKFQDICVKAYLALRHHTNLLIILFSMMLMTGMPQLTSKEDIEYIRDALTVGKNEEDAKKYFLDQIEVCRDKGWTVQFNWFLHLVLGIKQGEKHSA
Summary of the method: as §1

p110α/p85α, sequence (P42336 whole entry): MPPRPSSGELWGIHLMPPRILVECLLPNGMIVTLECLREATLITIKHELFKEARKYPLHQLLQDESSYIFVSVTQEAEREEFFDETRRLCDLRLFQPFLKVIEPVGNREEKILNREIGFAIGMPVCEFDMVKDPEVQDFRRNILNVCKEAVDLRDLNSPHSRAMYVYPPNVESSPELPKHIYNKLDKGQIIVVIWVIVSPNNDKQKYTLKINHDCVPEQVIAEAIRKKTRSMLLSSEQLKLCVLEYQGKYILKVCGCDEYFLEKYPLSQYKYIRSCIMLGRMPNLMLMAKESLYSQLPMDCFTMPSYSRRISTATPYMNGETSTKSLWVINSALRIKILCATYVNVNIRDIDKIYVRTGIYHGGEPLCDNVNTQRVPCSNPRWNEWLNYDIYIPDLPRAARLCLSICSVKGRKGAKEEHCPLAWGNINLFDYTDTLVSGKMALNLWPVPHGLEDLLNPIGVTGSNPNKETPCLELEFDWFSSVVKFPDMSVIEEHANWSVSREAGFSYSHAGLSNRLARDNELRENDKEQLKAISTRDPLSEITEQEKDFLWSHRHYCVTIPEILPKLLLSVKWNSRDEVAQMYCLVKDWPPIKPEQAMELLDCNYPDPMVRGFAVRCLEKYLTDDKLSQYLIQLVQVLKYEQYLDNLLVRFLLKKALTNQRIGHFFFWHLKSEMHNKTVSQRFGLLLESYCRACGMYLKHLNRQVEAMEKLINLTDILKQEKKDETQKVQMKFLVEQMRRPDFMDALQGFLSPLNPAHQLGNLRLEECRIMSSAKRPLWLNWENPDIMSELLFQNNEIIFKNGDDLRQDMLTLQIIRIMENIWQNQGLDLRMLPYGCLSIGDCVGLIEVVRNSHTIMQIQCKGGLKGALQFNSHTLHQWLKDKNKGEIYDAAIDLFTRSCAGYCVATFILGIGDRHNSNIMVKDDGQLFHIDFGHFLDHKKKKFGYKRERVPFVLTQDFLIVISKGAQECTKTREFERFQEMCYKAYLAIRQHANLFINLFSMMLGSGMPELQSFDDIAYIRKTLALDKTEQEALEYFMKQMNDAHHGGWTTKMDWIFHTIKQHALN
p110α/p85α, sequence (P27986 whole entry partner): as the sequence (P27986 whole entry partner) above

Row | Structure (SMILES) | IC50 (p110α/p85α) [nM] | IC50 (p110β/p85α) [nM] | IC50 (p110δ/p85α) [nM] | EC50 (Balb/c splenic B cells) [nM] | IC50 (p110γ) [nM]
1 | Nc1ccc2cc(-c3nn(Cc4cc5ccccc5nc4-c4ccccc4F)c4ncnc(N)c34)ccc2n1 [Compound 136] | > 1000 | > 1000 | < 100 | 100 to 1000 | < 100
2 | CC(=O)Nc1nc2ccc(-c3nn(Cc4cc5ccccc5nc4-n4cnc(C)c4)c4ncnc(N)c34)cc2s1 [Compound 171] | 100 to 1000 | > 1000 | < 100 | < 100 | < 100
3 | Nc1ncnc2c1c(I)nn2Cc1cc2ccccc2nc1N1CCCC1 [Compound 1] | > 1000 | > 1000 | < 100 | 100 to 1000 | < 100
4 | Nc1ncnc2c1c(-c1cc(O)cc(F)c1)nn2Cc1cc2c(nc1-c1ccccc1F)CCC2 [Compound 101] | > 1000 | > 1000 | 100 to 1000 | 100 to 1000 | > 1000
5 | Nc1ncnc2c1c(-c1cc(O)cc(F)c1)nn2Cc1cc2ccccc2nc1-c1cccnc1 [Compound 55] | > 1000 | > 1000 | < 100 | < 100 | 100 to 1000
6 | CCC(c1cc2ccccc2nc1N1CCCC1)n1nc(-c2cc(O)cc(F)c2)c2c(N)ncnc21 (stereo not shown) [Compound 40] | > 1000 | > 1000 | < 100 | < 100 | 100 to 1000
7 | CCN1CCN(c2nc3ccccc3cc2Cn2nc(-c3cc(O)cc(F)c3)c3c(N)ncnc32)CC1 [Compound 38] | > 1000 | < 100 | < 100 | < 100 | > 1000
8 | Nc1ncnc2c1c(-c1cc(O)cc(F)c1)nn2Cc1cc2ccccc2nc1N1CCOCC1 [Compound 63] | > 1000 | > 1000 | < 100 | < 100 | 100 to 1000
9 | CC(Nc1ncnc2[nH]cnc12)c1cc2ccccc2nc1N1CCN(C)CC1 (stereo not shown) [Compound 82] | > 1000 | > 1000 | < 100 | < 100 | > 1000
10 | Nc1ncnc2c1c(-c1ccc3cn[nH]c3c1)nn2CC1=Cc2ccccc2NC1N1CCCC1 (stereo not shown) [Compound 81] | > 1000 | > 1000 | < 100 | 100 to 1000 | > 1000
11 | CC(=O)Nc1nc2ccc(-c3nn(Cc4cc5ccccc5nc4CCN4CCN(C)CC4)c4ncnc(N)c34)cc2s1 [Compound 169] | 100 to 1000 | 100 to 1000 | < 100 | < 100 | 100 to 1000
12 | Nc1nc2ccc(-c3nn(Cc4cc5ccccc5nc4-c4ccccc4F)c4ncnc(N)c34)cc2s1 [Compound 85] | 100 to 1000 | > 1000 | < 100 | < 100 | < 100
13 | Nc1ccnc2c1c(-c1cccc(O)c1)nn2Cc1cc2ccccc2nc1-c1cccnc1 [Compound 77] | > 1000 | > 1000 | < 100 | < 100 | > 1000
14 | Nc1nc2cc(-c3nn(Cc4cc5ccccc5nc4-c4ccccc4F)c4ncnc(N)c34)ccc2[nH]1 [Compound 152] | 100 to 1000 | > 1000 | < 100 | 100 to 1000 | < 100
15 | CN1CCN(c2nc3ccccc3cc2Cn2nc(-c3cnc4[nH]ccc4c3)c3c(N)ncnc32)CC1 [Compound 74] | > 1000 | 100 to 1000 | < 100 | < 100 | > 1000
16 | Nc1nc2cc(-c3nn(Cc4cc5ccccc5nc4-c4ccccc4F)c4ncnc(N)c34)ccc2o1 [Compound 137] | > 1000 | > 1000 | < 100 | 100 to 1000 | < 100
17 | Cc1ccccc1-c1nc2ccccc2cc1Cn1nc(-c2ccc3oc(N)nc3c2)c2c(N)ncnc21 [Compound 133] | > 1000 | > 1000 | < 100 | 100 to 1000 | < 100
